Values quoted from earlier work as cited in patent publication US20050003028A1, “Composition for protection and regeneration of structure and function of the liver” (priority 2001, published 2005).

Details: in vivo

- re-absorbtion into digestive system: weak
Substance: Sylimarin
